Test results: PubChem BioAssay AID2060354 (Molecular Pharmacology Branch, DTP, NCI, 2025)
Where “and” joins values, the source holds several entries; their conditions need not be identical. Identical values can stand only once.

Test system: 519858-162-T-J1-PDC spheroid growth inhibition
Experiment: Anticancer human tumor 519858-162-T-J1-PDC patient-derived colon adenocarcinoma cell line growth inhibition [TAK]
Conditions: spheroids with HUVEC and MSC; for viability, T/C: stronger effect = lower value
Text: Combinatorial screen of targeted agents with TAK-243 and ipatasertib in multi-cell type tumor spheroids
A high-throughput screen of multi-cell type tumor spheroids was designed to identify active combinations of targeted small molecules and TAK-243 or ipatasertib. Complex spheroids include a stromal component modeled by human endothelial cells (HUVEC) and fibroblasts modeled by human mesenchymal stem cells (MSCs). The concentration ranges selected for each drug and investigational agent were based upon clinically achievable concentrations if the clinical Cmax of the agent was known.
Compounds. The drugs and investigational agents: TAK-243 (785004), ipatasertib (767898), everolimus (733504), selumetinib (741078), bortezomib (756655), trametinib (758246), ixazomib (758254), vemurafenib (761431), dabrafenib (764134), sapanisertib (764658), alpelisib (765974), and copanlisib (816437), were obtained from the National Cancer Institute (NCI) Developmental Therapeutics Program Chemical Repository. The FDA-approved anticancer drug set is available from the NCI Developmental Therapeutics Program. […] The stock solutions were prepared in dimethyl sulfoxide (DMSO, Sigma-Aldrich, St. Louis, MO, cat. D2650) at 800-fold the tested concentration and stored at -70 degrees C prior to their use. All drugs and investigational agents were tested over a range starting from a high concentration at or near the clinical Cmax and decreasing in half-log increments. If the clinical Cmax for an agent had not been determined, the highest concentration tested was 10 microM.
NCI60 Cell Culture. NCI60 cell lines were obtained from the NCI Developmental Therapeutics Program Tumor Repository. For each lot of cells, the Repository performed Applied Biosystems AmpFLSTR Identifiler testing with PCR amplification to confirm consistency with the published Identifier STR profile for each cell line. Cells were kept in continuous culture for no more than 20 passages. The optimal seeding densities for each of the cell lines at each time point assessed were determined prior to performing the concentration response studies. Briefly, the NCI60 human tumor lines were grown as monolayers in RPMI 1640 medium supplemented with 10% FBS and 2 mmol/L L-glutamine.
An additional 2 lines were from the NCI60 cell line panel including melanomas, MALME-3M and SK-MEL-2. Pooled donor human umbilical vein endothelial cells (HUVEC, Lonza, cat. CC-2519) and human mesenchymal stem cells (hMSC, Lonza, cat. PT-2501) were purchased from Lonza (Walkersville, MD).
PDMR cell lines were grown in complete medium (DC medium): Dulbecco's modified Eagle's medium (DMEM)/F12 supplemented with 5% fetal bovine serum (FBS), 2 mM L-glutamine, 100 U/mL penicillin and 100 µg/ml streptomycin, 0.4 µg/ml hydrocortisone, 10 ng/ml epidermal growth factor (EGF) recombinant human protein, 24 µg/mL adenine, and 0.1 mg/mL primocin. During culture from frozen stock vials, PDMR cells were cultured in the same medium containing 10 µM Y-27632 (see Table 3). The PDCs were cultured in complete DMEM/F12 media without 10 microM Y-27632 dihydrochloride for at least two passages prior to the screen. The pooled donor HUVEC and hMSC were cultured in endothelial cell growth medium 2 (PromoCell, Heidelberg, Germany, cat. C-22011) and mesenchymal stem cell growth medium 2 (PromoCell, cat. C-28009), respectively. For all experiments, HUVEC and hMSC were used at passages </=5.
For the pre-screen, cell seeding densities were determined from a titration spanning the range from 5,000 to 313 cells per well. The mct-spheroids including 60% malignant cells, 25% HUVEC and 15% MSC dispensed as a mixture into U-bottom Ultra-Low Attachment 384-well plates (Corning, NY)
High-throughput Drug Combination Screening.
Prior to their inoculation into 384-well plates, malignant cells, HUVEC, and hMSC were removed from T flasks using TrypLE express (Thermo Fisher Scientific, cat. 12605036) and harvested by centrifugation for 5 min at 233 x g. […]

[1] = curve of first compound, second compound 0.3 µM
[2] = curve of first compound, second compound 0.949 µM
[3] = curve of first compound, second compound 3 µM
[4] = curve of first compound, second compound 9.49 µM
[5] = curve of first compound, second compound 30 µM
[6] = second compound 0.3 µM, first compound 0.0316 µM
[7] = second compound 0.3 µM, first compound 0.1 µM
[8] = second compound 0.949 µM, first compound 0.0316 µM
[9] = second compound 0.949 µM, first compound 0.1 µM
[10] = second compound 3 µM, first compound 0.0316 µM
[11] = second compound 3 µM, first compound 0.1 µM
[12] = second compound 9.49 µM, first compound 0.0316 µM
[13] = second compound 9.49 µM, first compound 0.1 µM
[14] = second compound 30 µM, first compound 0.0316 µM
[15] = second compound 30 µM, first compound 0.1 µM
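Note: spheroids exposed to drugs for 7 days.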

With `CC(C)CC(NC(=O)CNC(=O)c1cc(Cl)ccc1Cl)B1OC(=O)CC(CC(=O)O)(C(=O)O)O1` (configuration not stated) + CC(C)NCC(C(=O)N1CCN(c2ncnc3c2C(C)CC3O)CC1)c1ccc(Cl)cc1 the IC50 [1] was > 0.1 µM, the IC50 [2] was > 0.1 µM and the IC50 [3] was > 0.1 µM. The IC50 [4] was > 0.1 µM, the IC50 [5] was > 0.1 µM and the viability, T/C (second compound 0.3 µM, first compound 0.000316 µM) was 94.4%. For the same molecule, the viability, T/C (second compound 0.3 µM, first compound 0.001 µM) was 101%, the viability, T/C (second compound 0.3 µM, first compound 0.00316 µM) was 99% and the viability, T/C (second compound 0.3 µM, first compound 0.01 µM) was 79%. The viability, T/C [6] was 95.9%, the viability, T/C [7] was 59.7% and the viability, T/C (second compound 0.949 µM, first compound 0.000316 µM) was 114%. It also gave a viability, T/C (second compound 0.949 µM, first compound 0.001 µM) of 91.7%, a viability, T/C (second compound 0.949 µM, first compound 0.00316 µM) of 79.5% and a viability, T/C (second compound 0.949 µM, first compound 0.01 µM) of 81.3%. The viability, T/C [8] was 88%, the viability, T/C [9] was 67.7% and the viability, T/C (second compound 3 µM, first compound 0.000316 µM) was 101%. It also gave a viability, T/C (second compound 3 µM, first compound 0.001 µM) of 88.5%, a viability, T/C (second compound 3 µM, first compound 0.00316 µM) of 92.5% and a viability, T/C (second compound 3 µM, first compound 0.01 µM) of 71.3%. It also gave a viability, T/C [10] of 81.7%, a viability, T/C [11] of 82.9% and a viability, T/C (second compound 9.49 µM, first compound 0.000316 µM) of 90%. For the same molecule, the viability, T/C (second compound 9.49 µM, first compound 0.001 µM) was 100%, the viability, T/C (second compound 9.49 µM, first compound 0.00316 µM) was 80.4% and the viability, T/C (second compound 9.49 µM, first compound 0.01 µM) was 77.2%. The viability, T/C [12] was 92.5%, the viability, T/C [13] was 71.1% and the viability, T/C (second compound 30 µM, first compound 0.000316 µM) was 90.5%. For the same molecule, the viability, T/C (second compound 30 µM, first compound 0.001 µM) was 87.7%, the viability, T/C (second compound 30 µM, first compound 0.00316 µM) was 108% and the viability, T/C (second compound 30 µM, first compound 0.01 µM) was 79.5%. The viability, T/C [14] was 73.3% and the viability, T/C [15] was 78.6%.
In the case of `CC(=O)Nc1cccc(-n2c(=O)n(C3CC3)c(=O)c3c(Nc4ccc(I)cc4F)n(C)c(=O)c(C)c32)c1`, the viability, T/C (compound 94.9 pM) is reported as 89.9% and 91.8%, the viability, T/C (compound 0.0003 µM) is reported as 93.7% and 106% and the viability, T/C (compound 0.000949 µM) is reported as 72.7% and 67.4%. For the same molecule, the viability, T/C (compound 0.003 µM) was 71.1% and 79.3%, the viability, T/C (compound 0.00949 µM) was 34.1% and 44.1% and the viability, T/C (compound 0.03 µM) was 21.4% and 26.3%. The IC50 (curve of compound) was 0.00561 µM and 0.00851 µM.
In the case of `Cc1nc(NC(=O)N2CCCC2C(N)=O)sc1-c1ccnc(C(C)(C)C(F)(F)F)c1` (configuration not stated), the viability, T/C (compound 0.0316 µM) is reported as 104% and 89.1%, the viability, T/C (compound 0.1 µM) is reported as 79.9% and 74% and the viability, T/C (compound 0.316 µM) is reported as 91% and 80.8%. The viability, T/C (compound 1 µM) was 81.2% and 80.4%, the viability, T/C (compound 3.16 µM) was 79.6% and 74% and the viability, T/C (compound 10 µM) was 61.9% and 50%. The IC50 (curve of compound) was > 10 µM and 10 µM.
With `CC(C)(C)c1nc(-c2cccc(NS(=O)(=O)c3c(F)cccc3F)c2F)c(-c2ccnc(N)n2)s1` + CC(C)NCC(C(=O)N1CCN(c2ncnc3c2C(C)CC3O)CC1)c1ccc(Cl)cc1 the IC50 [1] was > 10 µM, the IC50 [2] was > 10 µM and the IC50 [3] was > 10 µM. For the same molecule, the IC50 [4] was > 10 µM, the IC50 [5] was > 10 µM and the viability, T/C [6] was 112%. The viability, T/C [7] was 128%, the viability, T/C (second compound 0.3 µM, first compound 0.316 µM) was 115% and the viability, T/C (second compound 0.3 µM, first compound 1 µM) was 130%. For the same molecule, the viability, T/C (second compound 0.3 µM, first compound 3.16 µM) was 107%, the viability, T/C (second compound 0.3 µM, first compound 10 µM) was 77.9% and the viability, T/C [8] was 109%. For the same molecule, the viability, T/C [9] was 115%, the viability, T/C (second compound 0.949 µM, first compound 0.316 µM) was 130% and the viability, T/C (second compound 0.949 µM, first compound 1 µM) was 113%. It also gave a viability, T/C (second compound 0.949 µM, first compound 3.16 µM) of 100%, a viability, T/C (second compound 0.949 µM, first compound 10 µM) of 86.7% and a viability, T/C [10] of 102%. It also gave a viability, T/C [11] of 102%, a viability, T/C (second compound 3 µM, first compound 0.316 µM) of 116% and a viability, T/C (second compound 3 µM, first compound 1 µM) of 97.3%. The viability, T/C (second compound 3 µM, first compound 3.16 µM) was 106%, the viability, T/C (second compound 3 µM, first compound 10 µM) was 61.2% and the viability, T/C [12] was 104%. It also gave a viability, T/C [13] of 92.6%, a viability, T/C (second compound 9.49 µM, first compound 0.316 µM) of 112% and a viability, T/C (second compound 9.49 µM, first compound 1 µM) of 91.6%. It also gave a viability, T/C (second compound 9.49 µM, first compound 3.16 µM) of 84.4%, a viability, T/C (second compound 9.49 µM, first compound 10 µM) of 72.6% and a viability, T/C [14] of 105%. It also gave a viability, T/C [15] of 86.9%, a viability, T/C (second compound 30 µM, first compound 0.316 µM) of 98.1% and a viability, T/C (second compound 30 µM, first compound 1 µM) of 82.2%. It also gave a viability, T/C (second compound 30 µM, first compound 3.16 µM) of 83.2% and a viability, T/C (second compound 30 µM, first compound 10 µM) of 75.4%.
For `CC(C)NCC(C(=O)N1CCN(c2ncnc3c2C(C)CC3O)CC1)c1ccc(Cl)cc1` (configuration not stated), the viability, T/C (compound 3 µM) was 87% [middle of 10 runs], the viability, T/C (compound 30 µM) was 86.8% [middle of 10 runs] and the IC50 (compound alone, run of 02/28/2020) was > 30 µM.
